Results: PMC7377239, “Cardiovascular Effects of Polychlorinated Biphenyls and Their Major Metabolites” (Environmental Health Perspectives, 2020)
Structures can show the parent of a compound that is named as a salt. Where two headings read alike, the source gives them in different places.

System: iCell endothelial cells (human iPSC-derived ECs)
Test: High-content imaging cytotoxicity in iCell endothelial cells, 24 h
Type: cell-based
Details: Homo sapiens, Endothelial cell, iPSC-EC, 24 hr; for viability at 0.1 µM / activity at 0.1 µM: 0.10 µM; for minimal effective concentration: top concentration 100.00 µM
Experimental: The culture conditions of iCell®-endothelial cells were as reported elsewhere ([Iwata et al. 2017]). Briefly, T75 flasks were coated with a fibronectin solution ( 3 μg/cm^2 ) followed by incubation for 1–2 h. Cells were thawed for 3 min in a 37°C water bath. Thawed cells were added to maintenance medium made of VascuLife VEGF Medium Complete Kit, excluding the supplied FBS, and iCell® Endothelial Cells Medium Supplement. The final formulation of the maintenance medium is detailed in ([Iwata et al. 2017]). The aliquoted fibronectin solution was aspirated from the T75 flasks, and cells were seeded at 1.0×10^4 cells/cm^2 . Cells were maintained at 37°C and 5% CO2 with media changes occurring every 2 d and passaged every 3–4 d using TrypLE™ Express. All experiments were conducted on cells between passages 1 and 5.
Cytotoxicity was assessed in parallel experiments. For iCell®-endothelial cells, 384-well plates were coated with a 30μg/mL fibronectin solution ( 10μL/well ) and incubated for 2 h at RT. iCell®-endothelial cells were dissociated with TrypLE™ Express and prepared into a solution to achieve 750 cells per well and 50μL of total volume. The fibronectin solution was removed from the 384-well plate, and cells were plated. For HUVECs, similar dissociation and the same cell density were used for plating with the exclusion of the fibronectin solution. Cells were incubated at 37°C and 5% CO2 until a monolayer was formed, typically 3–5 d. 2×PCB plates were created with the requisite maintenance medium. Before treatment, the medium in the wells was exchanged to 25μL/well of fresh maintenance medium. 2×PCB chemical solutions ( […] ) were added. After 24 h incubation at 37°C and 5% CO2 , cells were stained with Hoechst 33342, MitoTracker™ Orange, and calcein AM for 20 min before replacing the staining media with FluoroBright DMEM. Cell culture plates were imaged using the ImageXpress® Micro Confocal high-content imaging system (Molecular Devices). Images were acquired at 10× magnification with DAPI, TRITC, or FITC filter (Hoechst 33342, MitoTracker™, or calcein AM, respectively). The multiwavelength cell scoring applications module in MetaXpress™ (Molecular Devices) was used to analyze the images.
Phenotypic responses were quantitatively assessed using concentration–response modeling as detailed elsewhere ([Sirenko et al. 2017]). Briefly, phenotypic readouts were normalized to vehicle controls and fit to a four-parameter logistic model in R studio software (version 3.1.1; R Development Core Team). Following EPA guidance on dose–response modeling, a cutoff of one standard deviation across means of vehicle control (i.e., 0.5% vol/vol DMSO in cell culture media) wells was applied to determine the point-of-departure (POD) values ([U.S. EPA 2012]). In the absence of a concentration–response, the highest tested concentration (i.e., 100μM ) was assigned as “no observable adverse effect level.” The concentration–response assessment R script, as well as templates for vehicle and concentration–response data, are available as a supplement to Sirenko et al. ([2017]). The ability of physicochemical properties to predict differences in PODs were evaluated by multiregression and mixed-effects modeling using R.

[1] = 0.00 µM control = 100.00, read-out: endo.cyto.24hr
[2] = 0.00 µM control = 100.00, read-out: endo.mito.24hr
[3] = 0.00 µM control = 100.00, read-out: endo.mitoint.24hr
[4] = 0.00 µM control = 100.00, read-out: endo.nma.24hr
[5] = 0.00 µM control = 100.00, read-out: endo.tc.24hrs
[6] = read-out: endo.mitoint.24hr POD

Row | Structure (SMILES) | viability at 0.01 µM [1] | activity at 0.01 µM [2] | activity at 0.01 µM [3] | activity at 0.01 µM [4] | viability at 0.01 µM [5] | viability at 0.1 µM [1] | activity at 0.1 µM [2] | activity at 0.1 µM [3] | activity at 0.1 µM [4] | viability at 0.1 µM [5] | viability at 1 µM [1] | activity at 1 µM [2] | activity at 1 µM [3] | activity at 1 µM [4] | viability at 1 µM [5] | viability at 10 µM [1] | activity at 10 µM [2] | activity at 10 µM [3] | activity at 10 µM [4] | viability at 10 µM [5] | further results
1 | Oc1ccc(-c2ccc(Cl)cc2)cc1 [4'-OH PCB3] | 96.3% | 96.6% | 113% | 100% | 96.3% | 95% | 95.4% | 105% | 98.9% | 95% | 99.8% | 99.9% | 108% | 97.4% | 99.8% | 104% | 105% | 119% | 96% | 104% | viability at 100 µM [1]: 39.7%; activity at 100 µM [2]: 40.3%; activity at 100 µM [3]: 91.2%; activity at 100 µM [4]: 101%; viability at 100 µM [5]: 69.7%; minimal effective concentration (read-out: endo.cyto.24hr POD): 41.1 µM; minimal effective concentration (read-out: endo.mito.24hr POD): 41.1 µM; minimal effective concentration [6]: 100 µM; minimal effective concentration (read-out: endo.nma.24hr POD): 100 µM; minimal effective concentration (read-out: endo.tc.24hrs POD): 52 µM
2 | COc1ccc(-c2ccc(Cl)cc2)cc1 [4'-OMe PCB3] | 93.4% | 93.4% | 107% | 105% | 93.4% | 103% | 103% | 99.7% | 98.5% | 103% | 95.6% | 96% | 102% | 102% | 95.6% | 108% | 109% | 107% | 95% | 108% | viability at 100 µM [1]: 93.3%; activity at 100 µM [2]: 93.7%; activity at 100 µM [3]: 119%; activity at 100 µM [4]: 99.7%; viability at 100 µM [5]: 93.5%; minimal effective concentration (read-out: endo.cyto.24hr POD): 100 µM; minimal effective concentration (read-out: endo.mito.24hr POD): 100 µM; minimal effective concentration [6]: 20.5 µM; minimal effective concentration (read-out: endo.nma.24hr POD): 100 µM; minimal effective concentration (read-out: endo.tc.24hrs POD): 100 µM
3 | O=S(=O)(O)Oc1ccc(-c2ccc(Cl)cc2)cc1 [4'-yl PCB 3 sulfate] | 101% | 101% | 114% | 99.9% | 101% | 101% | 101% | 103% | 99.6% | 101% | 101% | 101% | 100% | 98.8% | 101% | 101% | 102% | 98% | 98.8% | 101% | viability at 100 µM [1]: 91.5%; activity at 100 µM [2]: 91.9%; activity at 100 µM [3]: 106%; activity at 100 µM [4]: 104%; viability at 100 µM [5]: 91.5%; minimal effective concentration (read-out: endo.cyto.24hr POD): 100 µM; minimal effective concentration (read-out: endo.mito.24hr POD): 100 µM; minimal effective concentration [6]: 100 µM; minimal effective concentration (read-out: endo.nma.24hr POD): 100 µM; minimal effective concentration (read-out: endo.tc.24hrs POD): 100 µM
